Laboratory results reported in BindingDB's records for doi:10.1021/jm0010365 (Universita' Degli Studi Di Salerno, 2001).

Assay: Inhibition of HIV-1 Mutant HIV-1 RT enzymes containing the single amino acid substitution V179D

SMILES | Ki
Cc1cc2nc(OCCNC(=S)Nc3ccc(Br)cn3)c3cccn3c2cc1C [1-(5-Bromo-pyridin-2-yl)-3-[2-(7,8-dimethyl-pyrrolo[1,2-a]quinoxalin-4-yloxy)-ethyl]-thiourea] | 800 nM
S=C(NCCOc1nc2cc(Cl)ccc2n2cccc12)Nc1ccc(Br)cn1 [1-(5-Bromo-pyridin-2-yl)-3-[2-(7-chloro-pyrrolo[1,2-a]quinoxalin-4-yloxy)-ethyl]-thiourea] | 70 nM
